Entries after “also recorded” stand apart in the source; their conditions may differ.
Tests used:
WT organoids = assay: interferon response of WT small intestine organoids to 5-AZA-CdR; assay type: cell-based, mouse
Procedure: (§1) For generation of small intestine organoids, organoids were collected in ice-cold TrypLE solution (e.g., Life Technologies) to remove Matrigel, then pipetted 5 cycles and incubated 5 min at 37° C. to obtain single-cell suspension. Cells were washed twice in PBS 3% FBS and resuspended at room temperature with PBS with 100 μg/ml DNase I for 10 min before staining with anti-H-2Kb (clone AF6-88.5.5.3; eBioscience). For antigen presentation in MODE-K cells, cells were washed in PBS, trypsinized and wash with warm medium. Then, cells were resuspended and stained with anti-H-2Kk (clone 36-7-5; BioLegend) and anti-H-2Dk (clone 15-5-5; BD Pharmingen). Dead cells were excluded after 7-AAD staining. All flow cytometry experiments were performed on a BD LSRFortessa 14-colors analyzer at the Sanford Burnham Prebys Medical Discovery Institute Shared FACS Facility and flow cytometry data were analyzed using FlowJo software (Tree Star Inc.).
(§2) Intestinal epithelial cell […] isolation was performed as described previously Llado et al., Repression of Intestinal Stem Cell Function and Tumorigenesis through Direct Phosphorylation of β-catenin and Yap by PKCζ. Cell Reports (2015) 10,740-754, with some modification. […] Adenoma fragments were counted after isolation and a total of 250-500 fragments were mixed with 100 μl of growth factor reduced-Matrigel and plated in 12- or 24-well plates. […]

ZKO organoids = assay: interferon response of ZKO (PKCζ-lacking) small intestine organoids to 5-AZA-CdR; assay type: cell-based, mouse
Procedure: as §1, §2

DKO^IEC mouse tumors = assay: TGF-βR1-specific inhibition experiment (galunisertib) in DKO^IEC mice; assay type: in vivo
Procedure: For CD8+ T cell depletion (FIG. 4, Panels A-L), 10-week-old LKO^IEC mice were injected intraperitoneally with 200 μg of anti-CD8 antibody (clone 2.43) or control IgG twice a week for 5 weeks until they were sacrificed. For the TGF-βR1-specific inhibition experiment, 10-week-old DKO^IEC mice were treated twice a day with a dose of 10 mg of galunisertib (Tauriello et al., 2018) per os for 6 weeks until they were sacrificed. Control mice were treated with vehicle. For checkpoint immunotherapy, either 10-week-old or 13-week-old DKO^IEC mice were injected intraperitoneally with a dose of 10 mg/kg (body mass) of anti-PD-L1 antibody (clone 6E11) twice a week for 3 weeks until they were sacrificed. For the combination therapy of anti-PD-L1 antibody and TGF-βR1-specific inhibitor, 23-week-old DKO^IEC mice were treated twice a day with a dose of 10 mg of galunisertib per os and injected intraperitoneally with a dose of 10 mg/kg (body mass) of anti-PD-L1 antibody twice a week for 3 weeks until they were sacrificed. Anti-PD-L1 antibody was provided by de Sauvage FJ (Genentech).
Organs were isolated, rinsed in ice-cold PBS, fixed in 10% neutral buffered formalin overnight at 4° C., dehydrated, and embedded in paraffin. Sections (5 μm) were stained with hematoxylin and eosin (H&E). For immunohistochemistry, sections were deparaffinized, rehydrated, and then treated for antigen retrieval. After blocking in Protein Block Serum-Free solutions (DAKO), tissues were incubated with primary antibody overnight at 4° C. followed by incubation with biotinylated secondary antibody. Endogenous peroxidase was quenched in 3% H2O2 in water for 10 min at room temperature. Antibodies were visualized with avidin/biotin complex (e.g., Vectastain Elite; Vector Laboratories) using diaminobenzidine as the chromogen. For immunofluorescence, fresh frozen organs were embedded in Tissue-Tek OCT compound (e.g., Sakura) and section of 10 μm were fixed in methanol, washed with PBS and then incubated with the primary antibodies. Washed sections were incubated with Alexa-conjugated secondary antibodies (e.g., Life Technologies) and examined with a Zeiss LSM 710 NLO Confocal Microscope. In situ hybridization for murine Ereg was carried out using RNAscope Multiplex Fluorescent Assay kit (Advanced Cell Diagnostics) following manufacturer's instructions. The probe corresponding to CDS region of murine Ereg (Accession #: NM_007950.2, probe region: 116-1496; Advanced Cell Diagnostics; Cat #: 437981). Cell death was analyzed using the In-Situ Cell Death Detection kit, TMR red (Thermo) for TUNEL. Masson's Trichrome staining was carried out following manufacturer's instructions (Sigma HT15-1KT).
Flow cytometry experiments were performed using fresh small intestinal tissue and organoid preparations. For the analyses of small intestinal tissue, a half part of duodenum, jejunum, and ileum was used for quantitative flow cytometry analysis of immune cell population of lamina propria. Briefly, small intestines were rinsed in cold PBS, minced into small pieces, incubated in HBSS with EDTA (5 mM) and digested with collagenase (0.05 mg/ml) for 30 min at 37° C., followed by a discontinuous Percoll separation method (40 and 75%) to purify immune cells. The cells concentrated at the interface were collected and washed in cold PBS. Red blood cells were removed with lysing buffer (BD Pharm Lyse) and live cells were counted using Trypan blue and then saturated with mouse Fc Block (purified anti-mouse CD16/CD32; 1:50; clone 2.4G2; BD Pharmingen) 30 min at 4° C. before incubating with specific dyed antibodies.
For IL-17A intracellular staining, cells were pretreated with 50 ng/ml of phorbolmyristate acetate and 500 ng/ml of ionomycin in the presence of 10 μg/ml of brefeldin A for 3 hr at 37° C. 5% CO2. […]

[1] = test system: serrated aPKC-DKO^IEC tumors; assay: PVHA treatment of aPKC-DKO^IEC mice; assay type: in vivo, mouse
Procedure: Mice treatment with PVHA: For the hyaluronidase-specific inhibition experiment, 11-week-old aPKC-DKO^IEC mice were injected intravenously twice per week with a low dose of 0.0375 mg or high dose of 0.2 mg/Kg of PVHA (Halozyme) for 3 weeks until they were sacrificed. Control mice were treated with vehicle.
Histology, immunohistochemistry: Organs were isolated, rinsed in ice-cold PBS, fixed in 10% neutral buffered formalin overnight at 4° C., dehydrated, and embedded in paraffin. For Masson TriChrome staining, the sections (5 μm) were deparaffinized, rehydrated, and then stained with the Trichrome Stain (Masson) Kit (Sigma-Aldrich, #HT15) following the manufacturer's instructions. For hyaluronan staining, sections (5 μm) were deparaffinized, rehydrated, and then incubated with biotinylated hyaluronan binding protein (Millipore Sigma, #385911) overnight at 4° C., followed by incubation with streptavidin HRP conjugate (Invitrogen, #434323). Staining was developed using diaminobenzidine. For CD8 staining, sections (5 μm) were deparaffinized, rehydrated, and then treated for antigen retrieval (Citrate, pH6) with heat. After blocking in Protein Block Serum-Free solutions (DAKO), tissues were incubated with primary antibody (anti-mouse CD8 (BD, #557654) overnight at 4° C. followed by incubation with biotinylated secondary antibody. Endogenous peroxidase was quenched in 3% H2O2 in water for 10 min at room temperature. Antibodies were visualized with avidin/biotin complex (Vectastain Elite; Vector Laboratories) using diaminobenzidine as the chromogen.

[2] = 3 μM for 24 hours, then drug-free culture, qRT-PCR
[3] = 10-week-old DKO^IEC mice, 10 mg per os twice a day for 6 weeks
[4] = aPKC-DKO^IEC mice, i.v. twice per week for 3 weeks from week 11

Compound: Nc1ncn([C@H]2C[C@H](O)[C@@H](CO)O2)c(=O)n1 [5-AZA-CdR, 5-aza-2-deoxycytidine]
- expression of interferon-responsive genes Irf7, Oas1a, Isg15, and Cxcl10 (WT organoids; [2]): robustly induced
- MHC class I long-chain H-2K^b on the surface (WT organoids; flow cytometry): upregulated
- expression of interferon-responsive genes Irf7, Oas1a, Isg15, and Cxcl10 (ZKO organoids; [2]): severely abrogated
- MHC class I long-chain H-2K^b on the surface (ZKO organoids; flow cytometry): but not on ZKO organoids

Compound: Cc1cccc(-c2nn3c(c2-c2ccnc4ccc(C(N)=O)cc24)CCC3)n1 [galunisertib]
- incidence of invasive cancer (DKO^IEC mouse tumors; [3]): reduced
- progression of SSA/P to the adenocarcinoma stage (DKO^IEC mouse tumors; [3]): suppressed
- tumor load (DKO^IEC mouse tumors; [3]): did not reduce
- tumor number (DKO^IEC mouse tumors; [3]): did not reduce
- tumor size (DKO^IEC mouse tumors; [3]): did not reduce
- proportion of PD-L1+/CD45+ cells infiltrating DKO^IEC tumors (DKO^IEC mouse tumors; CD45/PD-L1 staining): not affected
- collagen deposition (DKO^IEC mouse tumors; Masson's trichrome staining of small intestinal tumors, DKO^IEC mice): inhibition
- proportion of CD8+ T cells (DKO^IEC mouse tumors; flow cytometry, DKO^IEC tumors): did not significantly change
- proportion of CD11b+ myeloid cells (DKO^IEC mouse tumors; flow cytometry, DKO^IEC tumors): did not significantly change
- proportion of Th17 cells in the tumors (DKO^IEC mouse tumors; flow cytometry, DKO^IEC tumors): reduction
- proportion of Treg cells (DKO^IEC mouse tumors; flow cytometry, DKO^IEC tumors): did not significantly change
- expression of TGF-β-responsive genes, such as Angptl2, Cdkn2b, Il11, and Ereg (DKO^IEC mouse tumors; qRT-PCR mRNA levels, DKO^IEC mice): reduced expression
- stromal phospho-SMAD2 (DKO^IEC mouse tumors; staining of small intestinal tumors, DKO^IEC mice): inhibition

Compound: Pegvorhyaluronidase alfa [PVHA]
- progression of SSA/Ps to the adenocarcinoma stage ([1]; 11-week-old aPKC-DKO^IEC mice, i.v. twice per week for 3 weeks, low and high dose): suppressed
- number of CD8+ T cells stained in the tumor tissue (infiltration of CD8+ T cells) ([1]; CD8 staining of small intestinal tumors, compared to vehicle-treated samples): substantially increased; also recorded: increases
- collagen deposition in the tumors ([1]; Masson trichrome staining of small intestinal tumors): reduced
- tumor load [1, 4]: reduced
- tumor number [1, 4]: reduced
- tumor size [1, 4]: reduced
- serrated tumors in aPKC-DKO^IEC mice ([1]; figure legends FIG. 17 and FIG. 18): reduces
- incidence of invasive cancer ([1]; high dose of 0.2 mg/Kg, i.v. twice per week for 3 weeks from week 11): reduced
- tumor burden ([1]; high dose of PVHA): reduce tumor burden substantially
- hyaluronan deposition in the tumors ([1]; hyaluronan staining of small intestinal tumors, low dose of PVHA (0.0375 mg/kg)): reduced
- incidence of invasive cancer ([1]; low dose of 0.0375 mg, i.v. twice per week for 3 weeks from week 11): reduced
- tumor burden ([1]; low dose of PVHA): reduce tumor burden substantially

From US20230364205A1, “COMPOSITIONS AND METHODS FOR TREATING SERRATED COLORECTAL CANCER” (SANFORD BURNHAM PREBYS MEDICAL DISCOVERY INSTITUTE, priority 2020, published 2023)
